In data set [1] the test system is Skelotonema Costatum. The settings on record: in vivo.
For data set [2], the system named is Artica Tonsa.
Data set [3] deals with Corophium Volulator.
Data set [4] is described as follows: Biodegradability, OECD 306 test. The settings on record: OECD 306, 28 days.
Data set [5] concerns Skelotonema Costatum. In words: Ecotoxicology, Protocol ISO 10253. The settings on record: for EC50: 72 hrs.

Where two headings read alike, the source gives them in different places.

The LC50 is the concentration that kills 50% of the test population. By EC50 is commonly meant the midpoint of the concentration-response curve. A higher EC50 goes with a need for much substance.

For the compound `CCCCCCCC/C=C\CCCCCCCCN1CC(C(=O)O)CC1=O.NCCO` (centres unmarked) [OleylPyCOO-MEA, N-oleyl(pyrrolidine-2-one)-4-carboxylic acid/ethanol amine salt], in data set [1], the “72 h EC90” value turned out to be 0.58 µg/mL and the “NOEC@72 h” value amounted to 0.32 mg/L. The “48 h NOEC” value in data set [2] (48 h) was 0.30 mg/L. In addition, the “48 h LC90” value in data set [2] (48 h, first figure of LC90/100) was determined as 4.2 µg/mL. Also, in data set [2] (48 h, second figure of LC90/100), the “48 h LC100” value stood at 9.0 mg/L. In addition, in data set [2] (48 hrs), the LC50 was 2.8 µg/mL. In data set [3] (10 days), the “LC5@10 days” value amounted to 433 mg/kg. In addition, the “NOEC @ 10 days” value in data set [3] (in vivo) came out at 160 mg/kg. The “Degradation (biodegradability)” value in data set [4] turned out to be 69%. For the same compound, the EC50 in data set [5] turned out to be 0.44 µg/mL.
For “N-oleyl(pyrroildine-2-one)-4-carboxylic acid/morpholine distillation residue salt [OleylPyCOO-AmixM]”, the “NOEC @ 10 days” value in data set [3] (10 days) stood at 524 mg/kg. In data set [5] (72 h), the “72 h EC90” value came to 3.0 µg/mL and the “NOEC@72 h” value worked out at 0.56 mg/L. In data set [5], this compound registered an EC50 of 1.6 µg/mL.

The values are drawn from patent US20120088698A1, “WATER IN OIL EMULSION, METHOD FOR THE PRODUCTION THEREOF” (CLARIANT FINANCE (BVI) LIMITED, priority 2009, published 2012).
